# According to the supplement of paper PMC10307832:
# Legend:
# Test in all cases: relative viability (nuclei count vs DMSO), 5 days (fraction); higher = more cells survive
# [1] = tested on: RERF-LC-KJ
# Outline: (§1)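 Relative viability is defined as nuclei in treated wells over nuclei in vehicle wells. Duplicate plates were run and medians reported. Lung cancer cell lines in 1536-well plates were dosed by pin tool one day after seeding, with one drug or with a fixed anchor-drug dose plus five library-drug doses (not always all listed) in √10 steps, and nuclei were counted after 5 days.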
# [2] = tested on: H3255
# Outline: as §1
# [3] = tested on: HCC-827
# Outline: as §1
# [4] = tested on: NCI-H2228
# Outline: as §1
# [5] = tested on: EKVX
# Outline: as §1
# [6] = tested on: NCI-H2405
# Outline: as §1
# [7] = tested on: HCC-15
# Outline: as §1
# [8] = tested on: NCI-H1734
# Outline: as §1
# [9] = tested on: NCI-H1975
# Outline: as §1
# [10] = tested on: NCI-H1755
# Outline: as §1
# [11] = tested on: PC-14
# Outline: as §1
# [12] = tested on: NCI-H661
# Outline: as §1
# [13] = tested on: NCI-H1355
# Outline: as §1
# [14] = tested on: CAL-12T
# Outline: as §1
# [15] = tested on: NCI-H322M
# Outline: as §1
# [16] = tested on: NCI-H1650
# Outline: as §1
# [17] = tested on: LCLC-97TM1
# Outline: as §1
# [18] = tested on: NCI-H520
# Outline: as §1
# [19] = tested on: LK-2
# Outline: as §1
# [20] = tested on: PC-3 [JPC-3]
# Outline: as §1
# [21] = tested on: NCI-H1563
# Outline: as §1
compound,measurement,setting,value
CCN(CC)CCCCNc1ncc2cc(-c3cc(OC)cc(OC)c3)c(NC(=O)NC(C)(C)C)nc2n1 + CS(=O)(=O)CCNCc1ccc(-c2ccc3ncnc(Nc4ccc(OCc5cccc(F)c5)c(Cl)c4)c3c2)o1 [Lapatinib] (partner 2 µM),relative viability,[1]; first compound 0.01 µM,0.854
same,relative viability,[1]; first compound 0.03162 µM,0.893
same,relative viability,[1]; first compound 0.1 µM,0.907
same,relative viability,[1]; first compound 0.3162 µM,0.949
same,relative viability,[1]; first compound 1 µM,0.879
same,relative viability,[2]; first compound 0.01 µM,0.26
same,relative viability,[2]; first compound 0.03162 µM,0.235
same,relative viability,[2]; first compound 0.1 µM,0.25
same,relative viability,[2]; first compound 0.3162 µM,0.258
same,relative viability,[2]; first compound 1 µM,0.227
same,relative viability,[3]; first compound 0.01 µM,0.214
same,relative viability,[3]; first compound 0.03162 µM,0.206
same,relative viability,[3]; first compound 0.1 µM,0.177
same,relative viability,[3]; first compound 0.3162 µM,0.177
same,relative viability,[3]; first compound 1 µM,0.172
same,relative viability,[4]; first compound 0.01 µM,1.06
same,relative viability,[4]; first compound 0.03162 µM,1.35
same,relative viability,[4]; first compound 0.1 µM,1.19
same,relative viability,[4]; first compound 0.3162 µM,1.22
same,relative viability,[4]; first compound 1 µM,0.74
same,relative viability,[5]; first compound 0.01 µM,0.187
same,relative viability,[5]; first compound 0.03162 µM,0.181
same,relative viability,[5]; first compound 0.1 µM,0.178
same,relative viability,[5]; first compound 0.3162 µM,0.207
same,relative viability,[5]; first compound 1 µM,0.207
same,relative viability,[6]; first compound 0.01 µM,0.926
same,relative viability,[6]; first compound 0.03162 µM,1.05
same,relative viability,[6]; first compound 0.1 µM,1.16
same,relative viability,[6]; first compound 0.3162 µM,1.28
same,relative viability,[6]; first compound 1 µM,1.04
same,relative viability,[7]; first compound 0.01 µM,0.871
same,relative viability,[7]; first compound 0.03162 µM,0.944
same,relative viability,[7]; first compound 0.1 µM,0.83
same,relative viability,[7]; first compound 0.3162 µM,1.07
same,relative viability,[7]; first compound 1 µM,0.779
same,relative viability,[8]; first compound 0.01 µM,1.06
same,relative viability,[8]; first compound 0.03162 µM,1.2
same,relative viability,[8]; first compound 0.1 µM,1.39
same,relative viability,[8]; first compound 0.3162 µM,1.13
same,relative viability,[8]; first compound 1 µM,1.02
same,relative viability,[9]; first compound 0.01 µM,1.02
same,relative viability,[9]; first compound 0.03162 µM,0.882
same,relative viability,[9]; first compound 0.1 µM,0.952
same,relative viability,[9]; first compound 0.3162 µM,1.12
same,relative viability,[9]; first compound 1 µM,0.693
same,relative viability,[10]; first compound 0.01 µM,1.12
same,relative viability,[10]; first compound 0.03162 µM,1.06
same,relative viability,[10]; first compound 0.1 µM,1.04
same,relative viability,[10]; first compound 0.3162 µM,1.16
same,relative viability,[10]; first compound 1 µM,0.793
same,relative viability,[11]; first compound 0.01 µM,0.318
same,relative viability,[11]; first compound 0.03162 µM,0.373
same,relative viability,[11]; first compound 0.1 µM,0.391
same,relative viability,[11]; first compound 0.3162 µM,0.362
same,relative viability,[11]; first compound 1 µM,0.237
same,relative viability,[12]; first compound 0.01 µM,0.569
same,relative viability,[12]; first compound 0.03162 µM,0.457
same,relative viability,[12]; first compound 0.1 µM,0.432
same,relative viability,[12]; first compound 0.3162 µM,0.502
same,relative viability,[12]; first compound 1 µM,0.493
same,relative viability,[13]; first compound 0.01 µM,1
same,relative viability,[13]; first compound 0.03162 µM,0.897
same,relative viability,[13]; first compound 0.1 µM,1.2
same,relative viability,[13]; first compound 0.3162 µM,1.19
same,relative viability,[13]; first compound 1 µM,0.924
same,relative viability,[14]; first compound 0.03162 µM,0.56
same,relative viability,[14]; first compound 0.1 µM,0.703
same,relative viability,[14]; first compound 0.3162 µM,0.674
same,relative viability,[14]; first compound 1 µM,0.62
same,relative viability,[15]; first compound 0.01 µM,0.549
same,relative viability,[15]; first compound 0.03162 µM,0.584
same,relative viability,[15]; first compound 0.1 µM,0.598
same,relative viability,[15]; first compound 0.3162 µM,0.619
same,relative viability,[15]; first compound 1 µM,0.528
same,relative viability,[16]; first compound 0.01 µM,0.714
same,relative viability,[16]; first compound 0.03162 µM,0.733
same,relative viability,[16]; first compound 0.1 µM,0.614
same,relative viability,[16]; first compound 0.3162 µM,0.35
same,relative viability,[16]; first compound 1 µM,0.242
same,relative viability,[17]; first compound 0.03162 µM,0.958
same,relative viability,[17]; first compound 0.1 µM,1.13
same,relative viability,[17]; first compound 0.3162 µM,0.923
same,relative viability,[17]; first compound 1 µM,1.12
same,relative viability,[18]; first compound 0.01 µM,1.07
same,relative viability,[18]; first compound 0.03162 µM,0.946
same,relative viability,[18]; first compound 0.1 µM,1.11
same,relative viability,[18]; first compound 0.3162 µM,0.792
same,relative viability,[18]; first compound 1 µM,0.308
same,relative viability,[19]; first compound 0.01 µM,0.98
same,relative viability,[19]; first compound 0.03162 µM,0.814
same,relative viability,[19]; first compound 0.1 µM,0.966
same,relative viability,[19]; first compound 0.3162 µM,0.645
same,relative viability,[19]; first compound 1 µM,0.303
same,relative viability,[20]; first compound 0.01 µM,0.479
same,relative viability,[20]; first compound 0.03162 µM,0.453
same,relative viability,[20]; first compound 0.1 µM,0.519
same,relative viability,[20]; first compound 0.3162 µM,0.538
same,relative viability,[20]; first compound 1 µM,0.446
same,relative viability,[21]; first compound 0.01 µM,0.884
same,relative viability,[21]; first compound 0.03162 µM,0.895
same,relative viability,[21]; first compound 0.1 µM,0.849
same,relative viability,[21]; first compound 0.3162 µM,0.792
same,relative viability,[21]; first compound 1 µM,0.621
